Reference: ChEMBL document CHEMBL1201862, “PubChem BioAssay data set” (2004)
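Assay format: 96-well plates, 48-hour exposure. The concentration for 50% growth inhibition is given as GI50.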 The source made the active and inactive calls. Cut-off read from the data, not from the text of the source: active = GI50 up to about 1.1 µM and inactive = higher.

How the values were obtained:
Test in all cases: inhibition of tumour cell growth, NCI panel, 48 h
K562 = tested on: K562
OVCAR-8 = tested on: OVCAR-8
CAKI-1 = tested on: CAKI-1
786-0 = tested on: 786-0
Malme-3M = tested on: Malme-3M
HOP-62 = tested on: HOP-62
SW-620 = tested on: SW-620
HL-60 = tested on: HL-60
SK-MEL-2 = tested on: SK-MEL-2
UACC-62 = tested on: UACC-62
SK-MEL-28 = tested on: SK-MEL-28
SK-OV-3 = tested on: SK-OV-3
KM12 = tested on: KM12
HCT-116 = tested on: HCT-116
CCRF-CEM = tested on: CCRF-CEM
SK-MEL-5 = tested on: SK-MEL-5
NCI-H522 = tested on: NCI-H522
HOP-92 = tested on: HOP-92
LOX IMVI = tested on: LOX IMVI

Measured: GI50

Cc1[nH]c2ccccc2c1/C=C/c1c(C)[nH]c2ccccc12
inactive: K562 > 100 µM | OVCAR-8 > 100 µM | CAKI-1 > 100 µM | 786-0 > 100 µM | Malme-3M > 100 µM | HOP-62 > 100 µM | SW-620 > 100 µM | HL-60 > 100 µM | SK-MEL-2 > 100 µM | UACC-62 > 100 µM | SK-MEL-28 > 100 µM | SK-OV-3 > 100 µM | KM12 > 100 µM | HCT-116 > 100 µM | CCRF-CEM 20.7 µM | SK-MEL-5 > 100 µM

CCOC(=O)Cn1sc2ncc([N+](=O)[O-])cc2c1=O
inactive: NCI-H522 18.8 µM | K562 2.84 µM | OVCAR-8 16.3 µM | 786-0 16.9 µM | Malme-3M 17.9 µM | HOP-62 15.4 µM | SW-620 16.1 µM | HL-60 8.15 µM | SK-MEL-2 22.2 µM | UACC-62 23 µM | SK-MEL-28 15.1 µM | SK-OV-3 18.3 µM | HOP-92 13.3 µM | LOX IMVI 13.6 µM | KM12 18.5 µM | HCT-116 17.3 µM | CCRF-CEM 2.07 µM | SK-MEL-5 27.5 µM

CC(C)CC1C(=O)NCCC(NC(=O)C(Cc2ccc(OC(C)(C)C)cc2)NC(=O)OC(C)(C)C)C(=O)NC(Cc2ccccc2)C(=O)NC(Cc2ccccc2)NC1=O (stereo not drawn)
inactive: NCI-H522 11.6 µM | K562 3.02 µM | OVCAR-8 5.68 µM | CAKI-1 10.8 µM | 786-0 1.71 µM | Malme-3M 13.6 µM | HOP-62 19.5 µM | SW-620 2.54 µM | HL-60 8.36 µM | UACC-62 6.35 µM | SK-MEL-28 18.3 µM | SK-OV-3 22 µM | HOP-92 11.2 µM | LOX IMVI 4.6 µM | KM12 43.6 µM | HCT-116 4.05 µM | CCRF-CEM 4.3 µM | SK-MEL-5 31 µM

Fc1cccc(C2SCc3nc4ccccc4n32)c1 (stereo not drawn)
inactive: NCI-H522 20.2 µM | K562 28.5 µM | OVCAR-8 66.5 µM | CAKI-1 25.7 µM | 786-0 > 100 µM | Malme-3M 36.4 µM | SW-620 54.8 µM | HL-60 11 µM | SK-MEL-2 42.3 µM | UACC-62 40.1 µM | SK-MEL-28 > 10 µM | SK-OV-3 50.8 µM | HOP-92 12.5 µM | KM12 39.1 µM | HCT-116 45.9 µM | CCRF-CEM 41.2 µM | SK-MEL-5 12.7 µM

O=Cc1ccc2c(c1I)OCO2
inactive: NCI-H522 > 100 µM | K562 > 100 µM | OVCAR-8 > 100 µM | CAKI-1 > 100 µM | 786-0 > 100 µM | Malme-3M > 100 µM | HOP-62 > 100 µM | SW-620 > 100 µM | HL-60 > 100 µM | SK-MEL-2 > 100 µM | UACC-62 > 100 µM | SK-OV-3 > 100 µM | LOX IMVI > 100 µM | KM12 > 100 µM | HCT-116 > 100 µM | CCRF-CEM > 100 µM | SK-MEL-5 > 100 µM

CCOC(=O)C(C)(C)/C=C\C(Cl)=C(Cl)Cl
inactive: NCI-H522 > 100 µM | K562 > 100 µM | OVCAR-8 > 100 µM | CAKI-1 > 100 µM | 786-0 > 100 µM | Malme-3M > 100 µM | HOP-62 > 100 µM | SW-620 > 100 µM | HL-60 > 100 µM | UACC-62 > 100 µM | SK-MEL-28 > 100 µM | SK-OV-3 > 100 µM | HOP-92 > 100 µM | LOX IMVI > 100 µM | KM12 > 100 µM | HCT-116 > 100 µM | CCRF-CEM 71.6 µM | SK-MEL-5 > 100 µM

Cc1ccc2sc3cc(=O)cc(C)c-3nc2c1
inactive: NCI-H522 20.3 µM | K562 18.6 µM | OVCAR-8 37.9 µM | CAKI-1 28.5 µM | 786-0 55.1 µM | HOP-62 65 µM | SW-620 > 100 µM | HL-60 13.8 µM | SK-MEL-2 > 100 µM | UACC-62 14.3 µM | SK-MEL-28 > 100 µM | SK-OV-3 > 100 µM | HOP-92 > 100 µM | KM12 49.7 µM | HCT-116 80.2 µM | CCRF-CEM 17.8 µM | SK-MEL-5 16.6 µM

O=C1c2ccccc2C(=O)N1C/C=N/NS(=O)(=O)c1ccc(Br)cc1
inactive: NCI-H522 > 100 µM | K562 > 100 µM | OVCAR-8 > 100 µM | CAKI-1 74.1 µM | 786-0 > 100 µM | Malme-3M > 100 µM | HOP-62 > 100 µM | SW-620 > 100 µM | HL-60 > 100 µM | SK-MEL-2 > 100 µM | UACC-62 > 100 µM | SK-MEL-28 80 µM | SK-OV-3 > 100 µM | HOP-92 11 µM | KM12 > 100 µM | HCT-116 > 100 µM | CCRF-CEM > 100 µM | SK-MEL-5 > 100 µM

Nc1c(-c2cn(Cc3ccccc3)c3ccccc23)[n+]([O-])c2ccccc2[n+]1[O-]
inactive: NCI-H522 13.2 µM | K562 24.5 µM | OVCAR-8 45.4 µM | CAKI-1 16 µM | 786-0 30.7 µM | Malme-3M 29.7 µM | SW-620 51.4 µM | HL-60 9.46 µM | SK-MEL-2 23.1 µM | UACC-62 23.6 µM | SK-MEL-28 25.4 µM | SK-OV-3 24.8 µM | HOP-92 8.79 µM | LOX IMVI 24.2 µM | KM12 28.8 µM | CCRF-CEM 27.1 µM | SK-MEL-5 21.9 µM

CC(=O)OC1CCn2nnc(CO)c21 (stereo not drawn)
inactive: NCI-H522 > 100 µM | K562 > 100 µM | OVCAR-8 > 100 µM | CAKI-1 > 100 µM | 786-0 > 100 µM | Malme-3M > 100 µM | SW-620 > 100 µM | SK-MEL-2 > 100 µM | UACC-62 > 100 µM | SK-MEL-28 > 100 µM | SK-OV-3 > 100 µM | HOP-92 > 100 µM | KM12 > 100 µM | HCT-116 > 100 µM | SK-MEL-5 > 100 µM

O=c1[nH]c(=O)n(C2OC(CO)C(N(O)Cc3ccc(F)cc3)C2O)cc1Br (stereo not drawn)
inactive: NCI-H522 13.2 µM | K562 > 100 µM | OVCAR-8 > 100 µM | 786-0 > 100 µM | SW-620 > 100 µM | HL-60 > 100 µM | UACC-62 > 100 µM | SK-MEL-28 > 100 µM | SK-OV-3 > 100 µM | HOP-92 > 100 µM | LOX IMVI > 100 µM | KM12 > 100 µM | HCT-116 > 100 µM | CCRF-CEM > 100 µM | SK-MEL-5 > 100 µM

O=C(Nc1nnc(S)[nH]1)C(=O)C(C(=O)c1ccc2ccccc2c1)C1OC(=O)c2ccccc21 (stereo not drawn)
inactive: NCI-H522 17.6 µM | K562 21 µM | OVCAR-8 11.9 µM | CAKI-1 30.3 µM | 786-0 14.9 µM | Malme-3M 31 µM | HOP-62 14.7 µM | SW-620 28.9 µM | SK-MEL-2 23 µM | UACC-62 15.6 µM | SK-MEL-28 14.8 µM | SK-OV-3 23.4 µM | HOP-92 25.8 µM | LOX IMVI 17.8 µM | KM12 26.8 µM | HCT-116 13.7 µM | CCRF-CEM 15.5 µM | SK-MEL-5 18.1 µM

CCOC(=O)Cn1c(=O)[nH]c(=O)c2[nH]cnc21
inactive: NCI-H522 > 100 µM | K562 > 100 µM | OVCAR-8 > 100 µM | 786-0 > 100 µM | Malme-3M > 100 µM | HOP-62 > 100 µM | SW-620 > 100 µM | HL-60 > 100 µM | SK-MEL-2 > 100 µM | UACC-62 > 100 µM | SK-MEL-28 > 100 µM | SK-OV-3 > 100 µM | LOX IMVI > 100 µM | KM12 > 100 µM | HCT-116 > 100 µM | CCRF-CEM > 100 µM | SK-MEL-5 > 100 µM

Cc1nn(-c2ccccc2)c2nc3c(c(C)nn3-c3ccccc3)c(-c3ccc(C(F)(F)F)cc3)c12
inactive: K562 > 100 µM | OVCAR-8 > 100 µM | CAKI-1 > 100 µM | 786-0 60.1 µM | HOP-62 > 100 µM | SW-620 > 100 µM | HL-60 > 100 µM | UACC-62 > 100 µM | SK-MEL-28 > 100 µM | SK-OV-3 > 100 µM | HOP-92 > 100 µM | LOX IMVI > 100 µM | KM12 > 100 µM | HCT-116 > 100 µM | CCRF-CEM > 100 µM | SK-MEL-5 > 100 µM

CS(=O)(=O)OCCCOS(C)(=O)=O
inactive: NCI-H522 > 100 µM | K562 > 100 µM | OVCAR-8 > 100 µM | 786-0 > 100 µM | Malme-3M > 100 µM | HOP-62 > 100 µM | SW-620 > 100 µM | HL-60 > 100 µM | SK-MEL-2 > 100 µM | UACC-62 > 100 µM | SK-MEL-28 > 100 µM | SK-OV-3 > 100 µM | HOP-92 > 100 µM | LOX IMVI > 100 µM | KM12 > 100 µM | HCT-116 > 100 µM | CCRF-CEM > 100 µM | SK-MEL-5 > 100 µM

COC(=O)CC(=O)OC1C[C@@H]2CCC3C(C)(C)CCC[C@]3(C)C23CC[C@@]1(C)C3 (stereo partly drawn)
inactive: NCI-H522 12.9 µM | K562 > 100 µM | OVCAR-8 19.5 µM | CAKI-1 16.9 µM | 786-0 16.3 µM | Malme-3M 17.9 µM | HOP-62 19.3 µM | SW-620 18.2 µM | HL-60 > 100 µM | UACC-62 16.3 µM | SK-MEL-28 19.8 µM | SK-OV-3 24.5 µM | HOP-92 18 µM | LOX IMVI 17.8 µM | KM12 18.5 µM | HCT-116 17.3 µM | CCRF-CEM > 100 µM | SK-MEL-5 17.6 µM
